The test system of series [1] is saracatinib uptake into RASF. Put plainly: Uptake competition experiments: saracatinib uptake by RASF in presence of transporter substrates. The settings on record: saracatinib 10 µM.
Substrate in series [2]: CN1CCN(CCOc2cc(OC3CCOCC3)c3c(Nc4c(Cl)ccc5c4OCO5)ncnc3c2)CC1
Put plainly: cells, lysate or membranes named. The settings on record: other: hOCTN1-HEK293 cells, 10 min incubation; pH 7.4; 37.0 °C.

The text below walks through data of publication PMC5430895 (Scientific Reports, 2017).

Consider `C[N+](C)(C)[C@@H](Cc1c[nH]c(=S)[nH]1)C(=O)[O-]` [Ergothioneine, L-(+)-ergothioneine], for which, in series [1] (ergothioneine 40 µM (OCTN1 substrate)), the “net accumulation rate of saracatinib, % of the control” value came out at 53%. For the molecule `C[n+]1ccc(-c2ccccc2)cc1.[I-]` [MPP^+], in series [1] (MPP+ 20 µM (inhibitor of hOCT1-3)), the “effect on saracatinib uptake” value was “did not influence saracatinib uptake”.

B1: hOCTN1 (Homo sapiens) (protein)
chain: MRDYDEVIAFLGEWGPFQRLIFFLLSASIIPNGFNGMSVVFLAGTPEHRCRVPDAANLSSAWRNNSVPLRLRDGREVPHSCSRYRLATIANFSALGLEPGRDVDLGQLEQESCLDGWEFSQDVYLSTVVTEWNLVCEDNWKVPLTTSLFFVGVLLGSFVSGQLSDRFGRKNVLFATMAVQTGFSFLQIFSISWEMFTVLFVIVGMGQISNYVVAFILGTEILGKSVRIIFSTLGVCTFFAVGYMLLPLFAYFIRDWRMLLLALTVPGVLCVPLWWFIPESPRWLISQRRFREAEDIIQKAAKMNNIAVPAVIFDSVEELNPLKQQKAFILDLFRTRNIAIMTIMSLLLWMLTSVGYFALSLDAPNLHGDAYLNCFLSALIEIPAYITAWLLLRTLPRRYIIAAVLFWGGGVLLFIQLVPVDYYFLSIGLVMLGKFGITSAFSMLYVFTAELYPTLVRNMAVGVTSTASRVGSIIAPYFVYLGAYNRMLPYIVMGSLTVLIGILTLFFPESLGMTLPETLEQMQKVKWFRSGKKTRDSMETEENPKVLITAF
On to B1, for which the Km in series [2] is 42 ± 11 µM.
